Experimental data taken from US20240269320A1, “EXTENDED RELEASE DRUG DELIVERY SYSTEM FOR OCULAR DRUGS AND METHODS OF USE” (Eyedea Bio, LLC, priority 2021, published 2024).
Entries after “also recorded” stand apart in the source; their conditions may differ. Read-outs that look alike come from different tables or passages of the source. Blank lines part the entries; values can stand above or below the compound they belong to. Non-standard residues stand in square brackets, D forms with d. Residues, ends and D or L forms follow the SMILES beside them. *: point of attachment. Dmt = Cc1cc(O)cc(C)c1C[C@H](N)C(=O)O; X1 = CCCCCCCCCCCCCCCCCCO*

How the values were obtained:
[1] = Sunitinib malate bio-erodible tube implant, drug levels in retina tissue of rabbits; type: in vivo, rabbit
From the text: In another example, formulations of the hydrophilic small molecule sunitinib malate in the multiphasic colloidal suspension were developed (FIGS. 20-22). […] Complexation of sunitinib to selected complexation agents was visually confirmed by admixture and pulldown of sunitinib-complex particulates, which was confirmed since by the yellow-orange color of particulates (sunitinib has orange coloration) (FIG. 21).
In another example, formulations of the hydrophilic small molecule sunitinib malate in the multiphasic colloidal suspension were developed. […] Complexation of sunitinib to selected complexation agents was visually confirmed by admixture and pulldown of sunitinib-complex particulates, which was confirmed since by the yellow-orange color of particulates (sunitinib has orange coloration). Formulations of sunitinib with two-phase release kinetics in a bio-erodible tube formulation of sunitinib multiphasic colloidal suspension were designed and manufactured. […] Alteration of the ratio of sunitinib-complex particulates reduced the amount of drug released during initial burst and lowered the steady state release.

[2] = flowable bolus implant, multiple time points
carboxyesterase = experiment: Cleavage of prodrug ester bond by carboxyesterase in vitro; type: in vitro ADME; settings: 37° C., carboxyesterase 0.1 μg/mL
Experimental: One specific example of EY005-prodrug includes EY005-stearyl (depicted in FIG. 27A), wherein EY005 is linked via ester bond to stearyl alcohol, one member from the group of long-chain saturated fatty alcohols. On cleavage of the ester bond, the prodrug EY005-stearyl releases the EY005 MTT. […] Upon addition of EY005-stearyl prodrug to phosphate-buffered saline solution at 37° C. without esterase, the ester bond of the EY005-stearyl prodrug cleaves more slowly (˜36 hours) by hydrolysis (FIG. 28C).
EY005-stearyl was incubated at 37° C. in vitro with carboxyesterase (0.1 μg/mL), to simulate the ocular physiologic environment and the type of esterase that is readily abundant within the vitreous. […] Upon addition of EY005-stearyl prodrug to phosphate-buffered saline solution at 37° C. without esterase, the ester bond of the EY005-stearyl prodrug cleaves more slowly by hydrolysis (FIG. 28C).
In some examples of prodrugs, cleavage and release of the free API can be assessed in an in vitro release assay, wherein the prodrug is incubated in a solution containing carboxyesterase (or other natural or synthetic esterase), isolated vitreous recovered from animal (e.g., pig, rabbit, etc.), or isolated vitreous recovered from human donor, at […], […], or other temperatures. […]

[3] = In vitro to in vivo correlation of fluocinolone acetonide release, rabbit eyes; settings: formulations in multiphasic colloidal suspension
Experimental: Properties of Kd and binding capacity were calculated for each FA-complex particulate, in dispersal medium (FIG. 15). […] FIG. 16B illustrates other formulations, wherein varying the ratio of drug-complex particulates altered the kinetics of release, as the proportion of complexation agent (KET) with higher avidity (Kd) was increased across the formulations, for a given payload of FA.
The depicted curves reflect in vitro release profiles, while the individual colored points, circled, represent in vivo release data from rabbit eyes.

[4] = In vivo kinetics after intravitreal injection of bolus implant in rabbit eyes (LC/MS, retina); settings: for residual drug in recovered bolus/implants: bolus formulation of native peptide

drug levels in retina tissue ([1]; low and high dose implants, multiple time points): detectable drug levels in retina tissue
Compound: CCN(CC)CCNC(=O)c1c(C)[nH]c(/C=C2\C(=O)Nc3ccc(F)cc32)c1C [sunitinib malate]
release kinetics (pharmacokinetics) and tissue levels of tube formulation ([1]; bio-erodible tube formulation): produced desired tissue levels and durability of release; also recorded: two-phase release with high initial burst, followed by steady-state release

drug levels in retina tissue [2]: detectable drug levels in retina tissue
Compound: CNC(=O)c1ccccc1Sc1ccc2c(/C=C/c3ccccn3)n[nH]c2c1 [axitinib]

Compound: CCCCCCCCCCCCCCCCCCOC(=O)[C@H](Cc1ccccc1)NC(=O)[C@H](CCCCN)NC(=O)[C@H](Cc1c(C)cc(O)cc1C)NC(=O)[C@H](N)CCCNC(=N)N [EY005-stearyl, H-d-Arg-DMT-Lys-Phe(O)-stearyl] (H-[dR][Dmt]KF-X1)
cleavage of the prodrug ester bond, releasing EY005 (HPLC) (carboxyesterase): rapid cleavage of the prodrug ester bond

correlation between drug release in vitro and in vivo (retina tissue levels) [3]: strong correlation | correlation between drug release in vitro and in vivo (retina tissue levels) ([3]; listed as fluocinolone acetonide): good in vitro to in vivo correlation
Compound: CC1(C)O[C@@H]2C[C@H]3[C@@H]4C[C@H](F)C5=CC(=O)C=C[C@]5(C)[C@@]4(F)[C@@H](O)C[C@]3(C)[C@]2(C(=O)CO)O1 [FA, fluocinolone acetonide]

Compound: Cc1cc(O)cc(C)c1C[C@H](NC(=O)[C@H](N)CCCNC(=N)N)C(=O)N[C@@H](CCCCN)C(=O)N[C@@H](Cc1ccccc1)C(=O)O [EY005, H-d-Arg-DMT-Lys-Phe] (H-[dR][Dmt]KF-OH; C-terminus assumed)
time beyond which no detectable tissue levels ([4]; bolus formulation of native API administered into the vitreous): ≤ 21 days | residual drug in recovered bolus/implants ([4]; rabbits, listed as EY005 native peptide): Recovered implants contained no EY005 native peptide | residual drug in recovered bolus/implants ([4]; rabbits, listed as native API): no residual drug in the recovered bolus | tissue concentrations ([4]; by week 3.5, identical bolus formulation, rabbits): nearly undetectable
